Measurements from US8227463B2, “Amorphous body composed of heterocyclic compound, solid dispersion and pharmaceutical preparation each comprising the same, and process for production of the same” (Zenyaku Kogyo Kabushiki Kaisha, priority 2007, dated 2012).

Legend:
[1] = Blood concentration measurement of the test compound in rats after oral administration of the preparations; assay type: in vivo, SD male rats
Method: 7-week old SD male rats were purchased from Charles River Laboratories Japan (Inc.), preliminarily kept for a week and then used for experiments. Fasting began 16 hours before drug administration, and each of the preparations obtained from Examples 1, 4 and 5, when used, was mixed with distilled water to make a 100 mg/5 ml/kg test compound suspension, which was administered orally. Blood was sequentially collected from the tail vein using heparin-treated glass blood collection tubes from 15 min. to 24 or 30 hours after the administration of these preparations, centrifuged (3,000 rpm, 10 min., 4° C.) to obtain plasma, and the blood concentration of the test compound was evaluated (FIG. 3).

[2] = Changes in the state of the amorphous body on storage, analysed by powder X-ray diffraction; assay type: physicochemical; settings: ordinary temperature
Method: When a crystal of the test compound obtained by common procedures was analyzed using the powder X-ray diffraction method, several characteristic peaks at diffraction angles 2θ=5 to 14, and especially at 2θ=7 to 10, were observed (FIG. 1). In contrast, when the preparations obtained in Examples 1 and 2 were analyzed using the powder X-ray diffraction (XRD) method, the peaks at diffraction angles characteristic to a crystalline form were not observed, and it was clear that the test compound was in an amorphized state in these preparations (FIG. 2).
In order to investigate the changes in the state of an amorphous body of the test compound, a solid dispersion produced by the spray drying method with a 1:2.5 test compound to HPMC compounding ratio was stored under certain conditions, and changes in the state of the amorphous body of the test compound were analyzed by powder X-ray diffraction similar to Example 3.
The present tablets were filled into a glass jar, sealed and evaluated for the stability of the amorphous body after 6 months of storage at 40° C. (75% RH).

Bioavailability / absorbability of amorphized test compound ([1]; compared to the crystallized form) | Compound | Bioavailability in rats after grain refinement ([1]; grain refinement using a jet mill, a microfluidizer or an agitation mill) | Stability of the amorphous state over time [2]
– | FC(F)c1nc2ccccc2n1-c1nc(N2CCOCC2)nc(N2CCOCC2)n1 [test compound, 2-(2-difluoromethylbenzimidazol-1-yl)-4,6-dimorpholino-1,3,5-triazine] | an improvement in the bioavailability was not observed | –
extremely high absorbability | FC(F)c1nc2ccccc2n1-c1nc(N2CCOCC2)nc(N2CCOCC2)n1 [amorphous form of the test compound, 2-(2-difluoromethylbenzimidazol-1-yl)-4,6-dimorpholino-1,3,5-triazine] | – | stable for a long period of time at ordinary temperature
